Measurements reported in patent publication US20260285850A1, “SUBSTITUTED OXAZOLIDINONES AND IMIDAZOLINONES AS HERBICIDES” (FMC CORPORATION, priority 2023, published 2026).

Experiments:
Format in all cases: in vivo
[1] = system: barnyardgrass (Echinochloa crus-galli); test: Test A preemergence soil spray, visual injury rating 0-100; details: 10 days, 0 = no effect, 100 = complete control
In short: (§1)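 Directed preemergence spray onto seeded soil or postemergence spray onto 2-10 cm plants (loam plus sand); compound carried in surfactant-containing non-phytotoxic solvent. Injury rated by eye after 10 d greenhouse growth; 0 = no effect, 100 = complete control.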

[2] = system: blackgrass (Alopecurus myosuroides); test: as above; details: 10 days, 0 = no effect, 100 = complete control
In short: as §1

corn (Zea mays) [3] = test: as above; details: 10 days, 0 = no effect, 100 = complete control
In short: as §1

[4] = system: green foxtail (Setaria viridis); test: as above; details: 10 days, 0 = no effect, 100 = complete control
In short: as §1

kochia (Bassia scoparia) [5] = test: as above; details: 10 days, 0 = no effect, 100 = complete control
In short: as §1

[6] = system: oat, wild (wild oat, Avena fatua); test: as above; details: 10 days, 0 = no effect, 100 = complete control
In short: as §1

[7] = system: palmer (palmer amaranth, palmer pigweed, Amaranthus palmeri); test: as above; details: 10 days, 0 = no effect, 100 = complete control
In short: as §1

[8] = system: ragweed (common ragweed, Ambrosia artemisiifolia); test: as above; details: 10 days, 0 = no effect, 100 = complete control
In short: as §1

[9] = system: ryegrass, Italian (italian ryegrass, Lolium multiflorum); test: as above; details: 10 days, 0 = no effect, 100 = complete control
In short: as §1

soybean (Glycine max) [10] = test: as above; details: 10 days, 0 = no effect, 100 = complete control
In short: as §1

[11] = system: wheat (Triticum aestivum); test: as above; details: 10 days, 0 = no effect, 100 = complete control
In short: as §1

[12] = system: barnyardgrass (Echinochloa crus-galli); test: Test A postemergence application, visual injury rating 0-100; details: 10 days
In short: as §1

[13] = system: blackgrass (Alopecurus myosuroides); test: as above; details: 10 days
In short: as §1

corn (Zea mays) [14] = test: as above; details: 10 days
In short: as §1

[15] = system: galium (catchweed bedstraw, Galium aparine); test: as above; details: 10 days
In short: as §1

[16] = system: green foxtail (Setaria viridis); test: as above; details: 10 days
In short: as §1

[17] = system: horseweed (Erigeron canadensis); test: as above; details: 10 days
In short: as §1

kochia (Bassia scoparia) [18] = test: as above; details: 10 days
In short: as §1

[19] = system: oat, wild (wild oat, Avena fatua); test: as above; details: 10 days
In short: as §1

[20] = system: palmer (palmer amaranth, palmer pigweed, Amaranthus palmeri); test: as above; details: 10 days
In short: as §1

[21] = system: ragweed (common ragweed, Ambrosia artemisiifolia); test: as above; details: 10 days
In short: as §1

[22] = system: ryegrass, Italian (italian ryegrass, Lolium multiflorum); test: as above; details: 10 days
In short: as §1

soybean (Glycine max) [23] = test: as above; details: 10 days
In short: as §1

[24] = system: wheat (Triticum aestivum); test: as above; details: 10 days
In short: as §1

[25] = system: barnyardgrass (Echinochloa crusgalli); test: Test B flooded paddy test, visual plant response rating 0-100; details: 250 g ai/ha, Flood, applied to paddy water, evaluated after 13 days
In short: (§2)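 Visual evaluation after 13 days. Water-applied treatment, 3 cm flood depth held constant, plants at 2-leaf stage at treatment.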

[26] = system: ducksalad (Heteranthera limosa); test: as above; details: 250 g ai/ha, Flood, applied to paddy water, evaluated after 13 days
In short: as §2

rice (Oryza sativa) = test: as above; details: 250 g ai/ha, Flood, applied to paddy water, evaluated after 13 days
In short: as §2

[27] = system: sedge, umbrella (small-flower umbrella sedge, Cyperus difformis); test: as above; details: 250 g ai/ha, Flood, applied to paddy water, evaluated after 13 days
In short: as §2

[28] = 31 g ai/ha, postemergence, 0 = no effect, 100 = complete control
[29] = Postemergence, 125 g ai/ha, 0 is no effect, 100 is complete control

CSCCOC(=O)C1=CCC(NC(=O)C2(C)CN(c3cc(F)cc(F)c3)C(=O)O2)C1 (stereo not shown) [Compound 22]
Barnyardgrass plant response rating (0-100) ([1]; 31 g ai/ha): 0 | Barnyardgrass plant response rating (0 to 100 scale) ([1]; 125 g ai/ha): 0 | Blackgrass plant response rating (0-100) ([2]; 31 g ai/ha): 0 | Blackgrass plant response rating (0 to 100 scale) ([2]; 125 g ai/ha): 20 | Corn plant response rating (0-100) (corn (Zea mays) [3]; 31 g ai/ha): 20 | Corn plant response rating (0 to 100 scale) (corn (Zea mays) [3]; 125 g ai/ha): 20 | Foxtail, Green plant response rating (0-100) ([4]; 31 g ai/ha): 0 | Foxtail, Green plant response rating (0 to 100 scale) ([4]; 125 g ai/ha): 30 | Kochia plant response rating (0-100) (kochia (Bassia scoparia) [5]; 31 g ai/ha): 0 | Kochia plant response rating (0 to 100 scale) (kochia (Bassia scoparia) [5]; 125 g ai/ha): 0 | Oat, Wild plant response rating (0-100) ([6]; 31 g ai/ha): 0 | Oat, Wild plant response rating (0 to 100 scale) ([6]; 125 g ai/ha): 20 | Amaranth, Palmer plant response rating (0-100) ([7]; 31 g ai/ha): 0 | Amaranth, Palmer plant response rating (0 to 100 scale) ([7]; 125 g ai/ha): 80 | Ragweed plant response rating (0-100) ([8]; 31 g ai/ha): 0 | Ragweed plant response rating (0 to 100 scale) ([8]; 125 g ai/ha): 0 | Ryegrass, Italian plant response rating (0-100) ([9]; 31 g ai/ha): 0 | Ryegrass, Italian plant response rating (0 to 100 scale) ([9]; 125 g ai/ha): 50 | Soybean plant response rating (0-100) (soybean (Glycine max) [10]; 31 g ai/ha): 0 | Soybean plant response rating (0 to 100 scale) (soybean (Glycine max) [10]; 125 g ai/ha): 10 | Wheat plant response rating (0-100) ([11]; 31 g ai/ha): 20 | Wheat plant response rating (0 to 100 scale) ([11]; 125 g ai/ha): 60 | Barnyardgrass plant response rating (0-100) [12, 28]: 70 | Barnyardgrass plant response rating (0 to 100 scale) [12, 29]: 90 | Blackgrass plant response rating (0-100) [13, 28]: 60 | Blackgrass plant response rating (0 to 100 scale) [13, 29]: 80 | Corn plant response rating (0-100) (corn (Zea mays) [14]; [28]): 50 | Corn plant response rating (0 to 100 scale) (corn (Zea mays) [14]; [29]): 100 | Galium plant response rating (0-100) [15, 28]: 60 | Galium plant response rating (0 to 100 scale) [15, 29]: 80 | Foxtail, Green plant response rating (0-100) [16, 28]: 20 | Foxtail, Green plant response rating (0 to 100 scale) [16, 29]: 80 | Horseweed plant response rating (0-100) [17, 28]: 0 | Horseweed plant response rating (0 to 100 scale) [17, 29]: 30 | Kochia plant response rating (0-100) (kochia (Bassia scoparia) [18]; [28]): 60 | Kochia plant response rating (0 to 100 scale) (kochia (Bassia scoparia) [18]; [29]): 90 | Oat, Wild plant response rating (0-100) [19, 28]: 40 | Oat, Wild plant response rating (0 to 100 scale) [19, 29]: 70 | Amaranth, Palmer plant response rating (0-100) [20, 28]: 20 | Amaranth, Palmer / Pigweed, Palmer plant response rating (0 to 100 scale) [20, 29]: 80 | Ragweed plant response rating (0-100) [21, 28]: 0 | Ragweed plant response rating (0 to 100 scale) [21, 29]: 50 | Ryegrass, Italian plant response rating (0-100) [22, 28]: 60 | Ryegrass, Italian plant response rating (0 to 100 scale) [22, 29]: 70 | Soybean plant response rating (0-100) (soybean (Glycine max) [23]; [28]): 70 | Soybean plant response rating (0 to 100 scale) (soybean (Glycine max) [23]; [29]): 90 | Wheat plant response rating (0-100) [24, 28]: 90 | Wheat plant response rating (0 to 100 scale) [24, 29]: 90 | Plant response rating, Barnyardgrass (0 to 100 scale, 0 is no effect and 100 is complete control) [25]: 0 | Plant response rating, Ducksalad (0 to 100 scale, 0 is no effect and 100 is complete control) [26]: 0 | Plant response rating, Rice (0 to 100 scale, 0 is no effect and 100 is complete control) (rice (Oryza sativa)): 0 | Plant response rating, Sedge, Umbrella (0 to 100 scale, 0 is no effect and 100 is complete control) [27]: 0
